Values quoted from earlier work in patent US10306887B2, “Composition and methods for modulation of the octopamine receptor and its homologs” (THE BOARD OF REGENTS OF THE UNIVERSITY OF TEXAS SYSTEMS, priority 2014, dated 2019).
“Also recorded” adds a separate entry of the source.

Legend:
[1] = test system: mated tdc2 or tβh females
[2] = test system: dissected reproductive system

In the case of `NCC(O)c1ccc(O)cc1` (stereo not drawn) [OA, β,4-dihydroxyphenethylamine], the egg-laying ([1]; OA feeding, mated tdc2 or tβh mutant females) is listed as “sufficient to induce egg-laying”, the sterility ([1]; feeding OA to mated tβh mutant females) is listed as “rescues sterility” and the “muscle contractions in the ovary” value ([2]; OA applied to dissected reproductive system, ovary) is listed as “enhances muscle contractions in the ovary”. For the same molecule, the “muscle contractions in the oviduct” value ([2]; OA applied to reproductive system, oviduct) was “inhibits them in the oviduct; also recorded: relaxes the oviduct muscle”.
